Values joined by “and” are separate entries in the source; they are usually repeats but may differ in a detail not shown here. Equal entries are not always repeated. Where two headings read alike, the source gives them in different places.
What was measured:
[1] = target: T1, pooled human liver microsomes (pHLMs) (Homo sapiens, UniProt P05177); assay: EROD counterscreen in pooled human liver microsomes; format: biochemical; conditions: for IC50: human, microsomes; for SI 1B1:HLM: selectivity index
T1 sequence (P05177 2-516): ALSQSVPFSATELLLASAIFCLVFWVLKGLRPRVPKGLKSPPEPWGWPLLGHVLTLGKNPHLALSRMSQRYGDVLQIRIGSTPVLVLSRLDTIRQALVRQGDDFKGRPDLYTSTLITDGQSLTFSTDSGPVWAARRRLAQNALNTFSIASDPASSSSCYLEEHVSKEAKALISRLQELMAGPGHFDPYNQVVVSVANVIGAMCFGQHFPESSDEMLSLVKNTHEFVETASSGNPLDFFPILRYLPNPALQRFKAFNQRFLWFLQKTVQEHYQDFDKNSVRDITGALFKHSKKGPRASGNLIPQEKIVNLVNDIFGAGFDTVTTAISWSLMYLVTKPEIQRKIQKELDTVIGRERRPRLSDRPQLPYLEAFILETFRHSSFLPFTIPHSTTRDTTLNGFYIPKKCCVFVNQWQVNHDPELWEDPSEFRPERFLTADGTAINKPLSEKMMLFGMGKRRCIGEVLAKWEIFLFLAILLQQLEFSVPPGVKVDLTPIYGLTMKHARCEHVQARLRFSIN
Text: (§1) Human liver microsomes were used as a counterscreen to experimentally determine the magnitude of inhibitor selectivity.

[2] = Cytotoxicity, resazurin, 72 hours after compound addition; format: cell-based; conditions: human, HEK cells
Method: (§2) Cytotoxicity was assessed at 72 hours after compound addition using resazurin. The compounds that function as selective 1B1 inhibitors had no effect on cell health. This is an essential feature for any chemopreventative agent or molecules intended to block the detrimental action of an enzyme.

HEK = assay: as above; format: cell-based; conditions: Table 3, HEK
Method: as §2

CYP1B1 = target: T2, CYP1B1 (Homo sapiens, UniProt Q16678); assay: EROD assay in inducible CYP1B1 cell line; format: cell-based
T2 construct: expressed in transfected cells
T2 sequence (Q16678 1-543): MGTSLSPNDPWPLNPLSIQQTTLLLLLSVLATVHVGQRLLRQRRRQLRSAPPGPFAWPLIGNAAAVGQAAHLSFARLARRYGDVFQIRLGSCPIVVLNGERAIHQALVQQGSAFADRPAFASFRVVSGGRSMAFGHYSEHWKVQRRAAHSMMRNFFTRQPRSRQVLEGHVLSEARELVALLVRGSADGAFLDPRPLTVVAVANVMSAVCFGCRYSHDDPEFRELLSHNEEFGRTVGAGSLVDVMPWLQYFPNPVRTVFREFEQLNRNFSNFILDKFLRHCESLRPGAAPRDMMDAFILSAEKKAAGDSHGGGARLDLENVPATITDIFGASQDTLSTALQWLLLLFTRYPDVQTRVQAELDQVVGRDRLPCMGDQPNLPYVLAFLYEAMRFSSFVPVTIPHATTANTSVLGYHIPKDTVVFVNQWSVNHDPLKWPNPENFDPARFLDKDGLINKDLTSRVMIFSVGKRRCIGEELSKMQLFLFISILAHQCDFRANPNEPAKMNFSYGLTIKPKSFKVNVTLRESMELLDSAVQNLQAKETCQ
Method: (§3) The activity of the inhibitors was assessed in a novel cell based assay generated for the purpose of this project. Enzymatic turnover of CYP1B1 was measured using the ethoxy-resorufin-O-deethylase (EROD) assay with the fluorescent substrate, resorufin ethyl ether. Cell lines were generated where the gene for CYP1B1 alone or CYP1B1 and cytochrome P450 reductase (CPR) were both under the control of an inducible promoter. A cell line was generated for counter screening where the gene for CYP1A1 was used. CYP1A1 is the closest family member to CYP1B1.

CYP1A1 = target: T3, CYP1A1 (Homo sapiens, UniProt P04798); assay: EROD assay in CYP1A1 counter-screen cell line; format: cell-based; conditions: for SI 1B1:1A1: selectivity index
T3 construct: expressed in transfected cells
T3 sequence (P04798 1-512): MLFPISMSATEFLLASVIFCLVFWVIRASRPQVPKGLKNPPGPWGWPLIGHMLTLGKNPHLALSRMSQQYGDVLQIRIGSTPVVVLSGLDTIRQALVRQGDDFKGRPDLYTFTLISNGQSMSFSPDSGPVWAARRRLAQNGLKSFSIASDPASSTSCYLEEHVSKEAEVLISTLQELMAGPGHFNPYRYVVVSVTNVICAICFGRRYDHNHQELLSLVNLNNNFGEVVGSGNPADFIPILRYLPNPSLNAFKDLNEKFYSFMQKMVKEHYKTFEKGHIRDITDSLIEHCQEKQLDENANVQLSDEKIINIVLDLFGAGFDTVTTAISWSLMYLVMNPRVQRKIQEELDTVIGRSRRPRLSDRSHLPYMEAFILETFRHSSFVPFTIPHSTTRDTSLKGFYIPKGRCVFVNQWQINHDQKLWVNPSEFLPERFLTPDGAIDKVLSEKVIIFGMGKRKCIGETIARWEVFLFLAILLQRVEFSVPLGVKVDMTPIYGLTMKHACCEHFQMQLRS
Method: as §3

[3] = target: T1, pooled human liver microsomes (pHLMs); assay: EROD counterscreen in pooled human liver microsomes; format: biochemical; parameters: IC50 pHLM; EROD assay; conditions: human, microsomes, Table 2; EROD assay
Text: as §1

[4] = Table 1, 72 hours, resazurin, read-out: Cytotoxicity IC50
[5] = human, probe resorufin ethyl ether, Table 3, read-out: IC50 1A1
[6] = Table 2, EROD assay, read-out: IC50 CYP1B1
[7] = Table 2, EROD assay, read-out: IC50 CYP1A1

IC50 ([1]; Table 3, read-out: IC50 pHLM) [µM]	IC50 (CYP1B1; Table 3, read-out: IC50 1B1)	IC50 (CYP1A1; Table 3, read-out: IC50 1A1)	SMILES	HEK cell viability % at 10 μM (HEK) [%]	other results
0.91 ± 0.37	76 nM	–	COc1ccc(/C=C/c2ccncn2)c(OC)c1 [GL433]	–	IC50 ([1]; Table 1, read-out: hLM IC50): 1.1 µM; IC50 at 72 h [2, 4]: > 10 µM; IC50 (HEK; read-out: HEK cytotoxicity): > 10 µM; activity as CYP1B1 inhibitor, in words (CYP1B1): potent; IC50 (CYP1B1; Table 1, read-out: CYP1B1 IC50): 76 nM; IC50 (CYP1A1; human, probe resorufin ethyl ether, Table 1, read-out: CYP1A1 IC50): 10 µM; IC50 (CYP1A1; [5]): 10 µM
1.57 ± 0.29	510 nM	2.6 µM	COc1ccc(/C=C/c2cnccn2)c(OC)c1 [GL435]	71.4	–
5.27 ± 1.6	660 nM	4.28 µM and 3.29 µM	COc1cc(/C=C/c2cnccn2)cc(OC)c1 [GL437]	103.1	–
2.3 ± 0.98	760 nM	> 10 µM	COc1cc(/C=C/c2ccncn2)cc(OC)c1 [GL443]	105.2	–
0.15 ± 0.08	210 nM	> 10 µM	COc1cc(OC)c(/C=C/c2ccncn2)c(OC)c1 [GL456]	93.6	IC50 (CYP1A1; [5]): 10 µM
0.42 ± 0.24	310 nM	0.403 µM and 0.36 µM	COc1ccc(/C=C/c2cccnc2)c(OC)c1 [GL457]	91.5	–
2.26 ± 1.05	2510 nM	4.13 µM and 2.5 µM	COc1ccc(/C=C/c2cncnc2)c(OC)c1 [GL458]	95.8	–
4.4 ± 1.71	260 nM	0.73 µM and 0.74 µM	COc1cc(/C=C/c2ccncn2)cc(OC)c1OC [GL465]	83.4	–
32.9	105 nM	5.6 µM	C#CCOc1ccc(/C=C/c2ccncn2)cc1 [GL508]	93.4	IC50 (CYP1A1; [5]): 10 µM
0.857	–	–	C#CCOc1ccc(-c2nc3ccccc3c(=O)[nH]2)cc1 [GL510]	–	IC50 at 72 h ([2]; Table 3, HEK, read-out: HEK cytotoxicity): 0.406 µM
7.71	11.8 nM	> 10 µM	O=c1[nH]c(-c2ccc(OC/C(I)=C\I)cc2)nc2ccccc12 [GL511]	64.3	–
16.9	11.6 nM	2.4 µM and 1.04 µM	COc1ccc(-c2nc(O)c3ccccc3n2)c(OC)c1 [GL512]	85.3	–
26.2	36 nM	0.121 µM and 0.075 µM and 0.091 µM	COc1ccc(-c2nc3ccc(I)cc3c(=O)[nH]2)c(OC)c1 [GL513]	83.4	–
105	660 nM	4.42 µM and 3.5 µM	C#CCn1c(-c2ccc(OC)cc2OC)nc2ccc(I)cc2c1=O [GL514]	72.5	–
126	14 nM	4.58 µM and 2.46 µM and 1.9 µM	C#CCOc1ccc(-c2nc3ccc(I)cc3c(=O)[nH]2)cc1 [GL516]	40.8	–
146	> 500 nM	> 10 µM	COc1ccc(-c2nc3ccccc3c(=O)n2C)c(OC)c1 [GL517]	107	–
1.74	0.88 nM and 0.92 nM	2.57 µM	N#CCOc1ccc(-c2nc3ccccc3c(=O)[nH]2)cc1 [GL520]	89	–
> 10	–	2.27 µM and 0.97 µM	COc1cc(-c2nc3ccccc3c(=O)[nH]2)ccc1OCC#N [GL522]	80.6	–
–	4.9 nM and 6.4 nM	> 10 µM	N#CCOc1ccc(/C=C/c2ccncn2)cc1 [GL543]	–	IC50 ([1]; Table 1, read-out: hLM IC50): > 10 µM; IC50 at 72 h [2, 4]: > 10 µM; IC50 (CYP1B1; Table 1, read-out: CYP1B1 IC50): 4.9 nM; IC50 (CYP1A1; Table 1, read-out: CYP1A1 IC50): > 10 µM
> 10	< 2.5 nM	3.58 µM	N#CCOc1ccc(-c2nc(OCCCNC(=O)OCCOCCOCCOC(=O)NC34CC5CC(CC(C5)C3)C4)c3ccccc3n2)cc1 [GL581]	–	IC50 at 72 h [2, 4]: > 10 µM; IC50 (CYP1B1; Table 1, read-out: CYP1B1 IC50): 0.12 nM; IC50 (CYP1A1; Table 1, read-out: CYP1A1 IC50): 3.6 µM
–	–	–	COc1ccc(-c2csc(-c3ccc(O)cc3)n2)c(OC)c1 [GL650]	–	SI 1B1:HLM [1]: 89.7; IC50 [3]: 5.55 µM; IC50 (CYP1B1; [6]): 61.9 nM; IC50 (CYP1A1; [7]): 1.96 µM; SI 1B1:1A1 (CYP1A1): 32
–	–	–	COc1ccc(-c2csc(-c3cccnc3)n2)c(OC)c1 [GL654]	–	SI 1B1:HLM [1]: 0.00082; IC50 [3]: 0.0001 µM; IC50 (CYP1B1; [6]): 19.8 nM; IC50 (CYP1A1; [7]): 0.151 µM; SI 1B1:1A1 (CYP1A1): 7.6
–	–	–	Oc1ccc(-c2csc(-c3cccnc3)n2)cc1 [GL671]	–	SI 1B1:HLM [1]: 0.024; IC50 [3]: 0.526 µM; IC50 (CYP1B1; [6]): 2230 nM; IC50 (CYP1A1; [7]): 1.41 µM; SI 1B1:1A1 (CYP1A1): 0.63
–	–	–	Oc1ccc(-c2csc(-c3ccccn3)n2)cc1 [GL672]	–	SI 1B1:HLM [1]: 1.63; IC50 [3]: 1.65 µM; IC50 (CYP1B1; [6]): 1020 nM; IC50 (CYP1A1; [7]): 1.32 µM; SI 1B1:1A1 (CYP1A1): 1.3
–	–	–	COc1ccc(-c2nc(-c3ccc(F)c(C(F)(F)F)c3)cs2)c(OC)c1 [GL674]	–	SI 1B1:HLM [1]: >10204; IC50 [3]: > 10 µM; IC50 (CYP1B1; [6]): 0.98 nM; IC50 (CYP1A1; [7]): 5.08 µM; SI 1B1:1A1 (CYP1A1): 5187
–	–	–	c1ccc(-c2nc(-c3cccnc3)cs2)nc1 [GL681]	–	SI 1B1:HLM [1]: 0.14; IC50 [3]: 3.24 µM; IC50 (CYP1B1; [6]): 2390 nM; IC50 (CYP1A1; [7]): 0.085 µM; SI 1B1:1A1 (CYP1A1): 0.035
–	–	–	COc1cc(OC)cc(-c2nc(-c3ccc(F)cc3)cs2)c1 [GL683]	–	IC50 [3]: > 10 µM; IC50 (CYP1B1; [6]): < 0.01 nM
–	–	–	COc1cc(OC)cc(-c2nc(-c3cccc(C(F)(F)F)c3)cs2)c1 [GL684]	–	SI 1B1:HLM [1]: >1000000; IC50 [3]: > 10 µM; IC50 (CYP1B1; [6]): < 0.01 nM; IC50 (CYP1A1; [7]): 2.78 µM; SI 1B1:1A1 (CYP1A1): >27800

From patent US20210246109A1, “POTENT AND SELECTIVE INHIBITORS OF CYTOCHROME P450” (University of Kentucky Research Foundation, priority 2020, published 2021)
